ChEMBL document CHEMBL1156829 (Proc Natl Acad Sci U S A, 2008)

Assays:
[1] = tested on: Plasmodium falciparum; test: NOVARTIS: Inhibition of Plasmodium falciparum 3D7 (drug-susceptible) proliferation in erythrocyte-based infection assay; assay type: functional, organism-based; conditions: Plasmodium falciparum, 3D7
[2] = NOVARTIS: Cytotoxicity against human hepatocellular carcinoma cell line (Huh7); assay type: toxicity, cell-based, Huh-7; conditions: Huh7 cells (hepatocellular carcinoma cell line)
[3] = tested on: Plasmodium falciparum; test: NOVARTIS: Inhibition of Plasmodium falciparum W2 (drug-resistant) proliferation in erythrocyte-based infection assay; assay type: functional, organism-based; conditions: Plasmodium falciparum, W2; read-out: EC50

| Structure (SMILES) | EC50 [1] [µM] | CC50 [2] [µM] | EC50 [3] [µM] |
| --- | --- | --- | --- |
| O=C(NCC1CCCO1)c1cnc(NCCCn2ccnc2)nc1NCCc1ccccc1 (stereo unspecified) | 1.01 | > 10 | 0.0267 |
| CC(=NO)c1ccc(NC2=C(N3CCCCC3)C(=O)c3ccccc3C2=O)cc1 | 0.0941 | > 100 | 0.09 |
| O=C(NCc1ccccc1C(F)(F)F)C1CC(O)CN1C(=O)Nc1ccccc1 (stereo unspecified) | > 1.25 | > 10 | 0.151 |
| O=C1CCC(CCNCc2ccc(Cl)cc2)N1CC1(N2CCCCC2)CCCC1 (stereo unspecified) | > 1.25 | > 10 | 0.632 |
| Cc1nc2ccc(NC(=O)C3CC3)cc2c(=O)n1Cc1ccc(Cl)cc1 | 1.17 | > 100 | 1.82 |
| CCOC(=O)C1CCN(C(=O)c2c(C)oc3c2C(=O)c2ccccc2C3=O)CC1 | 0.201 | 22.2 | 0.103 |
| Oc1c(C(Nc2ccccn2)c2ccc(Cl)cc2Cl)ccc2cccnc12 (stereo unspecified) | > 1.3 | > 10 | 0.16 |
| COCCNC(=O)C(c1ccc(C)cc1)N(Cc1ccccc1)C(=O)CCC(=O)Nc1nccs1 (stereo unspecified) | > 4.59 | > 100 | 1.72 |
| O=C(NCCN1CCOCC1)c1ccc(Cl)cc1 [MOCLOBEMIDE] | > 0.74 | > 10 | > 1.25 |
| CCOC(=O)C1=C(C)NC(=Cc2cc(C)n(-c3cccc(Br)c3)c2C)C1=O | 2.88 | > 100 | 0.805 |
| Cc1cccn2c(=O)c3cc(C(=O)NCc4ccco4)c(=N)n(CCc4ccccc4)c3nc12 | 0.388 | > 100 | 0.865 |
| CCCCCCc1cc(O)c2c3c(c(=O)oc2c1)CCC(C)C3 (stereo unspecified) | 0.364 | > 100 | 0.297 |
| CCCCCCc1ccc(C(=O)N(CC(=O)Nc2cc(C(C)(C)C)nn2-c2ccc(Cl)c(Cl)c2)C(C)C)cc1 | 1.39 | > 10 | > 0.752 |
| O=C(c1ccc([N+](=O)[O-])cc1)C1C(C(=O)c2ccc(F)cc2)C2(C(=O)Nc3ccccc32)C2C=Cc3ccccc3N12 (stereo unspecified) | > 0.622 | > 10 | 0.188 |
| CN(C)CCNc1ncc(C(=O)NCc2ccccc2)c(NCCc2ccccc2)n1 | 0.475 | > 10 | 0.361 |
| CCOC(=O)c1cnc2c(C)cc(Cl)cc2c1Nc1ccc(OC)c(OC)c1 | > 1.25 | > 11.8 | > 0.726 |
| COC(=O)[C@@H]1C[C@@H](NC(=O)c2ccc(OC)cc2OC)CN1Cc1ccc(C(F)(F)F)cc1 | 0.347 | > 100 | 0.159 |
| CCC(C(=O)Oc1ccccc1-c1nc2cc(C)ccn2c1NC(C)(C)CC(C)(C)C)c1ccccc1 (stereo unspecified) | 0.894 | > 10 | 0.0347 |
| O=C1N(Cc2cc3ccccc3s2)CC2CN(Cc3ccccc3)CCN12 (stereo unspecified) | 0.436 | > 10 | 0.372 |
| COc1cc(Br)c(C2CC(=O)Nc3ccc4ccccc4c32)cc1OC (stereo unspecified) | 0.386 | 34.4 | 0.307 |
| Cc1cc([N+](=O)[O-])ccc1-c1ccc(C(=O)Nc2ccc(-c3nc4ccccc4[nH]3)cc2)o1 | 2.79 | > 100 | > 12.5 |
| CCCOC(=O)C1=C(C)NC2=C(C(=O)CC(c3ccc(OC)c(OC)c3)C2)C1c1ccccc1Br (stereo unspecified) | 0.0766 | > 100 | 0.0112 |
| COc1ccc(-c2noc(CC(=O)Nc3ccccc3C#N)n2)cc1 | 6.08 | > 100 | 1.38 |
| COC(=O)[C@@H]1C[C@H](NC(=O)c2[nH]c3ccc(Cl)cc3c2-c2ccccc2)CN1Cc1cc(OC)cc(OC)c1 | > 11.5 | > 100 | 0.786 |
| COc1ccc2nc(Nc3nc(-c4ccccn4)cs3)sc2c1 | 0.0918 | 7.31 | 0.0935 |
| CCN1c2ccccc2N=C2C=CC(N)=CC21 (stereo unspecified) | 0.0596 | > 10 | 0.278 |
| OCCC1CN(Cc2cccc(Cl)c2)CCN1Cc1ccccc1 (stereo unspecified) | > 12.5 | > 100 | 1.73 |
